Test results from ChEMBL document CHEMBL1177881, “Synthesis and GABAA receptor activity of A-homo analogues of neuroactive steroids” (Eur J Med Chem, 2010).

Assays:
[1] = Displacement of [35S]TBPS from GABAA receptor in rat cerebellum after 60 mins; type: tissue-based
Rattus norvegicus = species: Rattus norvegicus; assay: Displacement of [35S]TBPS from GABAA receptor in rat cerebellum at 10 uM to 1 nM after 60 mins; type: tissue-based

Molecule `CC(=O)[C@H]1CC[C@H]2[C@@H]3CC[C@H]4CC[C@@H](O)CC[C@]4(C)[C@H]3CC[C@]12C` has an IC50 [1] of 1000 nM and an Imax (Rattus norvegicus) of 46.2%.

Work on `CC(=O)[C@H]1CC[C@H]2[C@@H]3CC=C4CC[C@@H](O)CC[C@]4(C)[C@H]3CC[C@]12C` yielded an IC50 [1] of 100 nM and an Imax (Rattus norvegicus) of 50%.

In the case of `CC(=O)[C@H]1CC[C@H]2[C@@H]3CC[C@H]4C[C@H](O)CC[C@]4(C)[C@H]3CC[C@]12C` [BREXANOLONE], the IC50 [1] is reported as 80 nM and the Imax (Rattus norvegicus) is reported as 79.6%.

`CC(=O)[C@H]1CC[C@H]2[C@@H]3CC=C4C[C@H](O)CCC[C@]4(C)[C@H]3CC[C@]12C` showed an IC50 [1] of 800 nM and an Imax (Rattus norvegicus) of 50.7%.

`CC(=O)[C@H]1CC[C@H]2[C@@H]3CC=C4CC[C@H](O)CC[C@]4(C)[C@H]3CC[C@]12C` gave an IC50 [1] of 1200 nM and an Imax (Rattus norvegicus) of 75.6%.
